The values that follow come from paper PMC4838876, “Multivalent display of minimal Clostridium difficile glycan epitopes mimics antigenic properties of larger glycans” (Nature Communications, 2016).

The test system of one assay is anti-PS-I mAbs. As to the kind of experiment: STD-NMR competition experiment. The note with it: 1 added to 200 μM, saturation transfer time 2 s. It is filed as binding, mouse. The source says:
(§1) Figure 6 Epitope mapping of glycan–mAb interactions by STD-NMR. (a,b) Recognition of disaccharide 3 by mAb 10A1 shown as Lewis structure and three-dimensional model calculated with Glycam[70]. Colours indicate percentages of STD effects. (c) Recognition patterns of 3 by three mAbs. STD spectra were acquired at 2 s saturation transfer time in the presence of mAbs 2C5, 10A1 and 10D6 (from top to bottom). (d) Competition of trisaccharide 2 by pentasaccharide 1.
Owing to the slow off-rates of 1 with all three mAbs, we were unable to determine any STD effects for the pentasaccharide. […] This indicated identical binding sites and confirmed high-affinity binding of 1.
Before the STD-NMR studies, proton resonances of oligosaccharides 1–3 were assigned using standard one-dimensional proton spectra, as well as 2D total correlation spectroscopy (2D-TOCSY), correlation spectroscopy, ^1H–^13C heteronuclear single quantum coherence and ^1H–^13C heteronuclear multiple bond correlation spectra at concentrations varying between 5 and 20 mM in D2O. All NMR studies were measured at 298 K on a Varian PremiumCOMPACT 600 MHz spectrometer equipped with a OneNMR probe. […] A total of 2,048 scans were recorded. […] STD build-up curves for mAb 10A1 were recorded at saturation transfer times of 0.5, 1, 2, 4 and 6 s, adjusting the prescan delay accordingly. […]

The target of assay [1] is mAb 10A1 (anti-PS-I IgG1). The assay is described as follows: Kinetic SPR of glycans binding to captured mAb 10A1. The arrangement: species or system mouse. The note with it: mAb 10A1, PBS, 25 °C, mean (min;max) n=2. The protocol:
Kinetic SPR experiments were performed to determine the binding strengths of the mAbs to PS-I glycans expressed as dissociation constants (KD)[8] (Fig. 5a). […] Overall, the SPR measurements (summarized in Table 1) confirmed results obtained by glycan microarray presented above.
Figure 5 KD values of anti-PS-I mAbs binding to 1 and 3 inferred by SPR. (a) mAbs were captured with an anti-mouse IgG antibody immobilized on the SPR sensor surface. Glycan antigens were passed over the surface to monitor changes in the response unit signals. (b,c) Representative sensorgrams showing reference-subtracted binding signals to 1 (b) and 3 (c). KD values were calculated by fitting the curves to a 1:1 Langmuir binding model (black overlaid curves) or with a steady-state affinity model (response units versus concentration plots). Indicated KD values are mean±s.e.m. of n=3 or mean with minimum and maximum values in parentheses of n=2 independent experiments. See Supplementary Figs 3–5 for details.
Binding analyses were carried out on a Biacore T100 instrument (GE Healthcare). […] The fitting quality was evaluated by investigating respective residual plots, χ^2 and s.e. values for on- and off-rates. […]

A further assay relates to mAb 10A1. As to the kind of experiment: STD-NMR epitope mapping. It is filed as binding, mouse. The following applies: 200 μM ligand, 2 μM antibody.
Source text: To understand antibody binding at molecular-level detail and to identify the functional groups involved in antibody binding, we performed STD-NMR measurements. […] The glucose moiety in 3 contributed weakly to antibody binding around H3 (11%). Despite the low saturation transfer, this interaction appears to be important for antibody binding, as mono-rhamnose 4 was not or only weakly bound by the mAbs in glycan microarray and SPR experiments.
as §1
Before the STD-NMR studies, proton resonances of oligosaccharides 1–3 were assigned using standard one-dimensional proton spectra, as well as 2D total correlation spectroscopy (2D-TOCSY), correlation spectroscopy, ^1H–^13C heteronuclear single quantum coherence and ^1H–^13C heteronuclear multiple bond correlation spectra at concentrations varying between 5 and 20 mM in D2O. All NMR studies were measured at 298 K on a Varian PremiumCOMPACT 600 MHz spectrometer equipped with a OneNMR probe. For STD-NMR, samples contained 200 μM ligand and 2 μM antibody in 40 mM phosphate buffer (pH 7.0, uncorrected). On-resonance irradiation was set to −0.5 p.p.m. and off-resonance irradiation was set to 80 p.p.m. A 35-ms T1ρ spin-lock filter and a W5 WATERGATE for solvent suppression were applied. The saturation pulse train consisted of a series of Gaussian shaped pulses of 50 ms duration and 1 ms interpulse delay with an irradiation power of 85 Hz. A total of 2,048 scans were recorded. STD-NMR spectra of carbohydrates in the absence of antibody and spectra of antibody only served as negative controls. Here, saturation and relaxation times were set to 2 and 6 s, respectively. STD build-up curves for mAb 10A1 were recorded at saturation transfer times of 0.5, 1, 2, 4 and 6 s, adjusting the prescan delay accordingly. Epitopes for mAbs 2C5 and 10D6 were recorded with a saturation transfer time of 2 s. NMR spectra were processed in MestReNova 9.1 (MestreLab) and data were analysed in OriginPro9 (OriginLab) to obtain the binding epitopes according to Mayer and James[28]. For the competition experiments, 1 was added to samples of 3 or 2 to a final concentration of 200 μM applying a saturation transfer time of 2 s.

By Kd is commonly meant the free concentration of one partner at which half of the binding sites on the other are occupied at equilibrium, for simple one-to-one binding. The low end stands for a tighter complex, the high end for a looser complex. `C[C@@H]1O[C@@H](O[C@@H]2[C@@H](O)[C@H](O[C@H]3[C@H](O[C@@H]4O[C@@H](C)[C@H](O)[C@@H](O)[C@H]4O)[C@@H](O)[C@@H](O[C@H]4[C@@H](OCCCCCN)O[C@H](CO)[C@@H](O)[C@@H]4O)O[C@@H]3CO)O[C@H](CO)[C@H]2O)[C@H](O)[C@H](O)[C@H]1O` [Compound 1]: the “Competition of trisaccharide 2 STD effects (in words)” value in the assay on anti-PS-I mAbs is reported as “completely diminished any STD effects imposed by 2”. The Kd in assay [1] stood at 0.245 µM.

On to `C[C@@H]1O[C@@H](O[C@@H]2[C@@H](O)[C@H](OCCCCCN)O[C@H](CO)[C@H]2O)[C@H](O)[C@H](O)[C@H]1O` [Compound 3, Rha-(1→3)-Glc], for which binding in assay [1] was put at a Kd of 5.9 µM. In the assay on mAb 10A1, the “normalized STD effect, glucose H3” value was 11%; the “normalized STD effect, rhamnose H2” value is recorded as 78%; the “normalized STD effect, rhamnose H3” value was found to be 99%; the “normalized STD effect, rhamnose methyl protons H6, H'6 and H''6” value is listed as 100%.
